Experimental data taken from patent US20150034084A1, “[…] NITRIC OXIDE FOR TREATING RESPIRATORY DISEASES” (Advanced Inhalation Therapies (AIT) Ltd., priority 2012, published 2015).
Like-named read-outs stand apart in the source and are kept apart here.

Columns and labels:
[1] = system: all microorganisms tested; assay: Bactericidal effect of 200 ppm gNO, whole panel of microbes (average / all tested); assay type: cell-based; settings: saline, average over the bacteria of Table 1
Description: A similar procedure was used to determine the time required to induce an effective bactericidal effect with 200 parts per million gNO, a concentration just above the dose used in the dose-ranging study presented hereinabove, on a representative collection of drug resistant gram-positive and gram-negative strains of bacteria associated with clinical infection.
A successful bactericidal effect was defined as a decrease in bacteria greater than 3 log10 CFU/mL. Further, C. albicans, Methicillin Resistant S. aureus (MRSA), a particularly resistant strain of P. aeruginosa from a cystic fibrosis patient, Group B Streptococcus, and M. smegmatis were also included to evaluate if yeasts, a multi-drug resistant strain of bacteria and actinomycetes have a similar response. These bacteria represent a comprehensive variety of drug resistant bacterial pathogens that contribute to both respiratory and wound infections. The results from these studies laid the foundation for use of gNO at a concentration higher than 160 ppm as an antibacterial agent, specifically for use against bacteria associated with clinical infections.
For this study, saline was selected as a suspension media because it would not mask the direct effect of gNO as a bactericidal, whereas fully supplemented growth medium might introduce external variables (e.g., buffer or react with gNO). Other media might also provide metabolites and replenish nutrients that produce enzymes that protect bacteria from oxidative and nitrosative damage, thereby masking the effect of gNO. […] In saline, the colonies were static but remained viable. These conditions are similar to the approach previously used in animal models.
Without exception, every bacteria challenged with 200 ppm gNO had at least a 3 log10 reduction in CFU/mL. […] The latent period was then followed by an abrupt death of all cells; gram negative and gram positive bacteria, antibiotic resistant bacterial strains, yeast and mycobacteria all were susceptible to 200 ppm gNO. […]

Enterobacter sp. = settings: 200 ppm gNO, saline; cited from earlier work
[2] = system: human respiratory syncytial virus (rgRSV30); assay: RSV exposure to 160 ppm gNO for 30 minutes, plaque/fluorescence assay; assay type: cell-based; settings: single 30 minutes exposure to 160 ppm gNO
[3] = system: chronic, non-healing wound; settings: topical 200 ppm gNO, cited from earlier work
MRSA biofilm = settings: 200 ppm gNO for eight hours (1,600 ppm hours); cited from earlier work
[4] = in vivo; cited from earlier work
Ang-1 and Ang-2 = assay: Phase I safety study: plasma angiopoietins (vascular endothelial activation); assay type: in vivo, human; settings: 160 ppm gNO inhalation
Protocol: After obtaining informed consent, treatment was initiated within 5 days of enrollment. Subjects were housed in a hospital ward and received 160 ppm gNO for 30 minutes every four hours (Q4h), five times a day, for five consecutive days by inhalation. Subjects returned for follow-up evaluations 3, 7 and 21 days after the final gNO administration. Subject safety was determined by monitoring vital signs, methemoglobin levels, lung function, blood chemistry, hematology, prothrombin time, inflammatory cytokine/chemokines levels and endothelial activation. These parameters were compared to baseline and at various time-points during and after gNO administration.
Hematological assessment included a complete blood count and differentials (hemoglobin, hematocrit, red blood cell count, white blood cell count, white blood cell differential, and platelet count) were obtained in order to monitor blood chemistry, hematology and inflammation measurements. The blood chemistry profile included serum creatinine, and liver function tests such as aspartate aminotransferase (AST) serum glutamic oxaloacetic transaminase (SGOT), alkaline phosphatase, and gamma-glutamyl transferase (GGT). The effect of gNO on coagulation was determined by the prothrombin time (PT) and its derived measures of prothrombin ratio (PR) and international normalized ratio (INR). Heparinized plasma was collected at baseline and on days 1, 2, 4, and 5 of gNO administration, and on follow-up days 3, 7 and 21 and frozen at −80° C. Plasma cytokine levels were assessed using the human inflammation cytokine bead array kit (BD Bioscience, Canada). Plasma levels of angiopoietin Ang-1 and Ang-2 were determined by ELISA (R&D Systems, USA).
To assess whether gNO inhalation may cause inflammation or endothelial activation cytokines and the vascular endothelium activation factors Ang-1 and Ang-2 were quantified in peripheral plasma at baseline at various time points thereafter.

[5] = rats, gNO concentrations below 200 ppm, 6 hours/day for 28 days; cited from earlier work
E. Coli = settings: 200 ppm gNO, saline; cited from earlier work
[6] = system: all microorganisms tested; settings: 200 ppm gNO, cited from earlier work
[7] = rats, cited from earlier work
[8] = system: bovine respiratory disease; settings: intermittent 30 minute exposures of gNO, cattle; cited from earlier work
[9] = system: influenza A/victoria/H3N2; settings: 160 ppm gNO, cited from earlier work
[10] = system: five planktonic species of methicillin resistant S. aureous (MRSA); settings: 1,600 ppm hours of gNO; cited from earlier work
Klebsiella sp.#2 = settings: 200 ppm gNO, saline; cited from earlier work
P. aeruginosa (ATCC) = settings: 200 ppm gNO, saline; cited from earlier work
Klebsiella sp.#3 = settings: 200 ppm gNO, saline; cited from earlier work

SMILES: [N]=O [gNO, nitric oxide]
- LD100, Average [1]: 4.77 h
- Latent Period, Average [1]: 2.77 h
- −2.5 Log10, Average [1]: 3.82 hours
- LD100 (Enterobacter sp.): 6 h
- Latent Period (Enterobacter sp.): 4 h
- −2.5 Log10 (Enterobacter sp.): 5.3 hours
- viral viability ([2]; starting level 500 PFU): substantially nullified
- reduction of virus viability (factor) ([2]; starting level 1000 PFU): ~10
- reduction of virus viability (factor) ([2]; starting level 2000 PFU): ~10
- reduction of wound size ([3]; at one week): 42%
- biofilm on wound ([3]; within the first three days of treatment): no longer visibly present
- MRSA in biofilm (MRSA biofilm): shown to reduce MRSA
- half-life in the body [4]: less than 6 seconds
- nitrate excreted in the urine, share of the nitric oxide dose inhaled [4]: more than 70%
- Ang-2/Ang-1 ratio (Ang-1 and Ang-2): not affected
- plasma Ang-1 (Ang-1 and Ang-2): unaffected
- plasma Ang-2 (Ang-1 and Ang-2): not affected
- deaths [5]: No deaths occurred
- LD100 (E. Coli): 5 h
- Latent Period (E. Coli): 3 h
- −2.5 Log10 (E. Coli): 4.2 hours
- bactericidal effect [6]: complete bactericidal effect on all microorganisms tested
- reduction in CFU/mL ([6]; every bacteria challenged): ≥ 3 log10
- mortality ([7]; 300 ppm gNO, groups of 10, first 1-2 days): Six of the animals
- mortality ([7]; 400 ppm gNO, 6 hours per day): all of the animals died on the first day
- MetHb level ([7]; 400 ppm gNO): 72.5 percents
- mortality ([7]; 500 ppm gNO, 6 hours per day): all of the animals died on the first day
- MetHb level ([7]; 500 ppm gNO): 67 percents
- clinical symptoms of bovine respiratory disease [8]: decrease the clinical symptoms
- infectivity ([9]; MDCK plaque assay, A/Victoria/H3N2): reducing the infectivity
- anti-viral effect, intermittent versus single exposure ([9]; one 30 minute dose vs three 30 minute treatments Q4h): more evident in the intermittent form of exposure
- population of planktonic MRSA strains [10]: A reduction in the population of all five MRSA planktonic strains was observed
- LD100 (Klebsiella sp.#2): 5 h
- Latent Period (Klebsiella sp.#2): 2 h
- −2.5 Log10 (Klebsiella sp.#2): 4.1 hours
- LD100 (P. aeruginosa (ATCC)): 3 h
- Latent Period (P. aeruginosa (ATCC)): 1 h
- −2.5 Log10 (P. aeruginosa (ATCC)): 2.1 hours
- LD100 (Klebsiella sp.#3): 6 h
- Latent Period (Klebsiella sp.#3): 3 h
- −2.5 Log10 (Klebsiella sp.#3): 5.1 hours
